# Data from US20090227632A1, “PHARMACEUTICAL COMPOSITION COMPRISING, IN COMBINATION, SAREDUTANT AND A SELECTIVE SEROTONIN REUPTAKE INHIBITOR OR A SEROTONIN/NOREPINEPHRINE REUPTAKE INHIBITOR” (priority 2006, published 2009).
# Test system: rat
# Assay: DRL-72 s (Differential Reinforcement of Low-rate-72 seconds) in-vivo rat test
# Settings: for % reinforced presses/total number of presses: n = 8 rats, test duration 1 hour, mean±SEM, solvent control 3.07 ± 0.48%; for minimum active dose in the DRL-72 s test: compound alone, intraperitoneally, rat
# Description: The in-vivo rat test DRL-72 s (Differential Reinforcement of Low-rate-72 seconds) is used according to the technique described by C. Louis et al., Neuropsychopharmacology, 2006, 1-8.
# Effects compared with regard to the percentage of rewards obtained (reinforced presses) with respect to the total number of presses by the rat after intraperitoneal administration of the compound A alone, of the compound B alone and of the compound A+compound B combination versus the control (solvent alone).
# Beforehand, the minimum active doses of the compound A alone and of the compound B alone in the DRL-72 s test were determined, namely: • compound A: 10 mg/kg intraperitoneally; • compound B: 5 mg/kg intraperitoneally.
# The compound A alone at the dose of 3 mg/kg and the compound B alone at the dose of 2.5 mg/kg were dissolved in a 0.9% (weight/volume) aqueous sodium chloride solution comprising 0.1% (v/v) Tween 80® and administered intraperitoneally at a final volume of 1 ml/kg.
# The combination was administered intraperitoneally by two simultaneous administrations of the compound A (3 mg/kg) and then of the compound B (2.5 mg/kg).
# The doses of the compounds are expressed in the free base form.
# For the requirements of the test, the effect of the compound A alone, the effect of the compound B alone and the effect of the compound A+compound B combination, compared with the effect of the solvent (control), are measured for each animal.
# Each rat (n=8) thus receives four injections spread out over time, namely the solvent (control), the compound A alone, the compound B alone and the compound A+compound B combination.
# The results obtained are collated in Table I and are expressed as a percentage of rewards obtained with respect to the total number of presses over the duration of the test (1 hour), in the mean±SEM (standard error of the mean) form.
compound,measurement,setting,value
"CNCCC(Oc1ccc(C(F)(F)F)cc1)c1ccccc1 (racemic) [Compound B, (±)-N-methyl-3-phenyl-3-[4-(trifluoromethyl)phenoxy]propan-1-amine]",percentage number of rewards obtained with respect to the control (in words),compound B alone 2.5 mg/kg i.p.,does not modify
same,% reinforced presses/total number of presses,compound B alone 2.5 mg/kg intraperitoneally,3.82 ± 0.76%
same,minimum active dose in the DRL-72 s test,,5 mg/kg
"CC(=O)NC1(c2ccccc2)CCN(CC[C@H](CN(C)C(=O)c2ccccc2)c2ccc(Cl)c(Cl)c2)CC1 [Compound A, (S)-(−)-N-[4-(4-Acetamido-4-phenylpiperidin-1-yl)-2-(3,4-dichlorophenyl)butyl]-N-methylbenzamide]",percentage number of rewards obtained with respect to the control (in words),"compound A alone 3 mg/kg i.p., increase not statistically significant",only slightly modifies
same,% reinforced presses/total number of presses,compound A alone 3 mg/kg intraperitoneally,6.41 ± 1.73%
same,minimum active dose in the DRL-72 s test,,10 mg/kg
